Measurements taken from patent publication US9174973B2, “Crystalline forms of azilsartan and preparation and uses thereof” (SUNSHINE LAKE PHARMA CO., LTD., priority 2011, dated 2015).

Legend:
Type in all cases: physicochemical
[1] = Thermal Stability of crystalline form A
Procedure: (§1) A layer of crystalline form A having a thickness of less than 5 mm was place in a flat weighing bottle. […] Samples were taken out at 6 days, 11 days and 16 days and examined for purity by HPLC, appearance and crystalline form. The conditions for the HPLC measurements are as shown below. • Instrument: Agilent 1200HPLC • Column: Agilent Eclipse XDB-C18 4.6*150 mm, 5 μm • Detection wavelength: 254 nm • Mobile phase: A phase 10 mM ammonium acetate (pH=3.5) and B phase acetonitrile [table]

[2] = Humidity Stability of crystalline form A; settings: 25° C., RH 90%+/−5%
Procedure: A layer of crystalline form A having a thickness of less than 5 mm was place in a flat weighing bottle. […] The conditions for the HPLC measurements are as shown below. • Instrument: Agilent 1200HPLC • Column: Agilent Eclipse XDB-C18 4.6*150 mm, 5 μm • Detection wavelength: 254 nm • Mobile phase: A phase 10 mM ammonium acetate (pH=3.5) and B phase acetonitrile [table]

[3] = solubility test of crystalline forms in 0.1M HCl (Chinese Pharmacopoeia 2010); settings: 300 mg in 6 ml 0.1M HCl, 25° C.±2° C.
Procedure: The solubility of crystalline forms A, B, C and D was measured in accordance with the solubility test described in “Chinese Pharmacopoeia 2010”, Topic and Requirement 15. A crystalline form of azilsartan was grinded into powder. The powder (300 mg) was added to 6 ml of 0.1M HCl as the solvent at 25° C.±2° C. […] The total test time was 30 minutes. The solid was deemed as dissolved when no solid was detected in the mixture by human eyes. The solubility data of crystalline forms A, B, C and D of azilsartan are as shown below.

[4] = Light Stability of crystalline form A; settings: light 4500+/−500 Lux
Procedure: as §1

[5] = 0 day (initial sample, before stress)

## CCOc1nc2cccc(C(=O)O)c2n1Cc1ccc(-c2ccccc2-c2noc(=O)[nH]2)cc1 [Form A]
[1]; [5]
  Appearance: White or off-
  Crystalline form: Form A
  RT* (min.) 2.39 (HPLC peak): — (“—” refers to the peak area is less than 3000 or there is no peak)
  RT* (min.) 2.89 (HPLC peak): 0.01%
  RT* (min.) 3.9 (HPLC peak): 0.32%
  RT* (min.) 5.79 (HPLC peak): — (“—” refers to the peak area is less than 3000 or there is no peak)
  RT* (min.) 13.2 (azilsartan peak, purity by HPLC): 99.51%
  RT* (min.) 20.55 (HPLC peak): — (“—” refers to the peak area is less than 3000 or there is no peak)
  RT* (min.) 22.8 (HPLC peak): 0.04%
  RT* (min.) 23.6 (HPLC peak): 0.01%
  RT* (min.) 26.96 (HPLC peak): — (“—” refers to the peak area is less than 3000 or there is no peak)
  RT* (min.) 27.5 (HPLC peak): 0.06%
  RT* (min.) 28.81 (HPLC peak): — (“—” refers to the peak area is less than 3000 or there is no peak)
  RT* (min.) 30.66 (HPLC peak): 0.02%
[1]; 60° C., 6 days
  Appearance: White or off-
  Crystalline form: Form A
  RT* (min.) 2.39 (HPLC peak): — (“—” refers to the peak area is less than 3000 or there is no peak)
  RT* (min.) 2.89 (HPLC peak): 0.02%
  RT* (min.) 3.9 (HPLC peak): 0.33%
  RT* (min.) 5.79 (HPLC peak): 0.01%
  RT* (min.) 13.2 (azilsartan peak, purity by HPLC): 99.47%
  RT* (min.) 20.55 (HPLC peak): 0.01%
  RT* (min.) 22.8 (HPLC peak): 0.04%
  RT* (min.) 23.6 (HPLC peak): 0.02%
  RT* (min.) 26.96 (HPLC peak): 0.01%
  RT* (min.) 27.5 (HPLC peak): 0.06%
  RT* (min.) 28.81 (HPLC peak): 0.01%
  RT* (min.) 30.66 (HPLC peak): 0.03%
[1]; 60° C., 11 days
  Appearance: White or off-
  Crystalline form: Form A
  RT* (min.) 2.39 (HPLC peak): — (“—” refers to the peak area is less than 3000 or there is no peak)
  RT* (min.) 2.89 (HPLC peak): 0.01%
  RT* (min.) 3.9 (HPLC peak): 0.35%
  RT* (min.) 5.79 (HPLC peak): — (“—” refers to the peak area is less than 3000 or there is no peak)
  RT* (min.) 13.2 (azilsartan peak, purity by HPLC): 99.48%
  RT* (min.) 20.55 (HPLC peak): 0.02%
  RT* (min.) 22.8 (HPLC peak): 0.04%
  RT* (min.) 23.6 (HPLC peak): 0.02%
  RT* (min.) 26.96 (HPLC peak): — (“—” refers to the peak area is less than 3000 or there is no peak)
  RT* (min.) 27.5 (HPLC peak): 0.07%
  RT* (min.) 28.81 (HPLC peak): — (“—” refers to the peak area is less than 3000 or there is no peak)
  RT* (min.) 30.66 (HPLC peak): 0.02%
[1]; 60° C., 16 days
  Appearance: White or off-
  Crystalline form: Form A
  RT* (min.) 2.39 (HPLC peak): — (“—” refers to the peak area is less than 3000 or there is no peak)
  RT* (min.) 2.89 (HPLC peak): 0.01%
  RT* (min.) 3.9 (HPLC peak): 0.35%
  RT* (min.) 5.79 (HPLC peak): — (“—” refers to the peak area is less than 3000 or there is no peak)
  RT* (min.) 13.2 (azilsartan peak, purity by HPLC): 99.47%
  RT* (min.) 20.55 (HPLC peak): 0.02%
  RT* (min.) 22.8 (HPLC peak): 0.04%
  RT* (min.) 23.6 (HPLC peak): 0.02%
  RT* (min.) 26.96 (HPLC peak): — (“—” refers to the peak area is less than 3000 or there is no peak)
  RT* (min.) 27.5 (HPLC peak): 0.07%
  RT* (min.) 28.81 (HPLC peak): — (“—” refers to the peak area is less than 3000 or there is no peak)
  RT* (min.) 30.66 (HPLC peak): 0.02%
[2]; 6 days
  Appearance: White or off-
  Crystalline form: Form A
  RT* (min.) 2.39 (HPLC peak): — (“—” refers to the peak area is less than 3000 or there is no peak)
  RT* (min.) 2.89 (HPLC peak): 0.02%
  RT* (min.) 3.9 (HPLC peak): 0.31%
  RT* (min.) 5.79 (HPLC peak): 0.01
  RT* (min.) 13.2 (azilsartan peak, purity by HPLC): 99.48%
  RT* (min.) 20.55 (HPLC peak): — (“—” refers to the peak area is less than 3000 or there is no peak)
  RT* (min.) 22.8 (HPLC peak): 0.05%
  RT* (min.) 23.6 (HPLC peak): 0.02%
  RT* (min.) 26.96 (HPLC peak): — (“—” refers to the peak area is less than 3000 or there is no peak)
  RT* (min.) 27.5 (HPLC peak): 0.07%
  RT* (min.) 28.81 (HPLC peak): — (“—” refers to the peak area is less than 3000 or there is no peak)
  RT* (min.) 30.66 (HPLC peak): 0.03%
[2]; 11 days
  Appearance: White or off-
  Crystalline form: Form A
  RT* (min.) 2.39 (HPLC peak): — (“—” refers to the peak area is less than 3000 or there is no peak)
  RT* (min.) 2.89 (HPLC peak): 0.02%
  RT* (min.) 3.9 (HPLC peak): 0.33%
  RT* (min.) 5.79 (HPLC peak): — (“—” refers to the peak area is less than 3000 or there is no peak)
  RT* (min.) 13.2 (azilsartan peak, purity by HPLC): 99.51%
  RT* (min.) 20.55 (HPLC peak): — (“—” refers to the peak area is less than 3000 or there is no peak)
  RT* (min.) 22.8 (HPLC peak): 0.04%
  RT* (min.) 23.6 (HPLC peak): 0.02%
  RT* (min.) 26.96 (HPLC peak): — (“—” refers to the peak area is less than 3000 or there is no peak)
  RT* (min.) 27.5 (HPLC peak): 0.06%
  RT* (min.) 28.81 (HPLC peak): — (“—” refers to the peak area is less than 3000 or there is no peak)
  RT* (min.) 30.66 (HPLC peak): 0.03%
[2]; 16 days
  Appearance: White or off-
  Crystalline form: Form A
  RT* (min.) 2.39 (HPLC peak): — (“—” refers to the peak area is less than 3000 or there is no peak)
  RT* (min.) 2.89 (HPLC peak): 0.01%
  RT* (min.) 3.9 (HPLC peak): 0.32%
  RT* (min.) 5.79 (HPLC peak): — (“—” refers to the peak area is less than 3000 or there is no peak)
  RT* (min.) 13.2 (azilsartan peak, purity by HPLC): 99.52%
  RT* (min.) 20.55 (HPLC peak): — (“—” refers to the peak area is less than 3000 or there is no peak)
  RT* (min.) 22.8 (HPLC peak): 0.04%
  RT* (min.) 23.6 (HPLC peak): 0.01%
  RT* (min.) 26.96 (HPLC peak): — (“—” refers to the peak area is less than 3000 or there is no peak)
  RT* (min.) 27.5 (HPLC peak): 0.05%
  RT* (min.) 28.81 (HPLC peak): — (“—” refers to the peak area is less than 3000 or there is no peak)
  RT* (min.) 30.66 (HPLC peak): 0.02%
[3]
  solubility: very soluble
[4]; 6 days
  Appearance: Light yellow
  Crystalline form: Form A
  RT* (min.) 2.39 (HPLC peak): 0.01%
  RT* (min.) 2.89 (HPLC peak): 0.09%
  RT* (min.) 3.9 (HPLC peak): 0.32%
  RT* (min.) 5.79 (HPLC peak): — (“—” refers to the peak area is less than 3000 or there is no peak)
  RT* (min.) 13.2 (azilsartan peak, purity by HPLC): 99.45%
  RT* (min.) 20.55 (HPLC peak): — (“—” refers to the peak area is less than 3000 or there is no peak)
  RT* (min.) 22.8 (HPLC peak): 0.04%
  RT* (min.) 23.6 (HPLC peak): 0.01%
  RT* (min.) 26.96 (HPLC peak): — (“—” refers to the peak area is less than 3000 or there is no peak)
  RT* (min.) 27.5 (HPLC peak): 0.06%
  RT* (min.) 28.81 (HPLC peak): — (“—” refers to the peak area is less than 3000 or there is no peak)
  RT* (min.) 30.66 (HPLC peak): 0.02%
[4]; 11 days
  Appearance: Light yellow
  Crystalline form: Form A
  RT* (min.) 2.39 (HPLC peak): 0.04%
  RT* (min.) 2.89 (HPLC peak): 0.14%
  RT* (min.) 3.9 (HPLC peak): 0.61%
  RT* (min.) 5.79 (HPLC peak): 0.02
  RT* (min.) 13.2 (azilsartan peak, purity by HPLC): 98.71%
  RT* (min.) 20.55 (HPLC peak): 0.07%
  RT* (min.) 22.8 (HPLC peak): 0.06%
  RT* (min.) 23.6 (HPLC peak): 0.03%
  RT* (min.) 26.96 (HPLC peak): 0.01%
  RT* (min.) 27.5 (HPLC peak): 0.29%
  RT* (min.) 28.81 (HPLC peak): 0.01%
  RT* (min.) 30.66 (HPLC peak): 0.03%
[4]; 16 days
  Appearance: Light yellow
  Crystalline form: Form A
  RT* (min.) 2.39 (HPLC peak): 0.05%
  RT* (min.) 2.89 (HPLC peak): 0.22%
  RT* (min.) 3.9 (HPLC peak): 0.34%
  RT* (min.) 5.79 (HPLC peak): — (“—” refers to the peak area is less than 3000 or there is no peak)
  RT* (min.) 13.2 (azilsartan peak, purity by HPLC): 99.24%
  RT* (min.) 20.55 (HPLC peak): — (“—” refers to the peak area is less than 3000 or there is no peak)
  RT* (min.) 22.8 (HPLC peak): 0.04%
  RT* (min.) 23.6 (HPLC peak): 0.01%
  RT* (min.) 26.96 (HPLC peak): — (“—” refers to the peak area is less than 3000 or there is no peak)
  RT* (min.) 27.5 (HPLC peak): 0.09%
  RT* (min.) 28.81 (HPLC peak): — (“—” refers to the peak area is less than 3000 or there is no peak)
  RT* (min.) 30.66 (HPLC peak): — (“—” refers to the peak area is less than 3000 or there is no peak)
